The results in this text go back to patent publication US8318730B2, “Fused hetrocyclic compounds” (Synta Pharmaceuticals Corporation, priority 2003, dated 2012).

A value given as a limit tells only on which side of the number the result lay.

The subject of one test is IL-12 production. As to the kind of experiment: In vitro assay of Example 12: inhibition of IL-12 production in IFNγ/LPS- or IFNγ/SAC-stimulated cells, ELISA. The test is classed as cell-based, human. Conditions: Homo sapiens; assay of Example 12; if more than one assay was performed, only the most active IC50 result is reported. From the text: The biological activities of a compound can be evaluated by a number of cell-based assays. One of such assays can be conducted using cells from human peripheral blood mononuclear cells (PBMC) or human monocytic cell line (THP-1). The cells are stimulated with a combination of human interferon-γ (IFNγ) and lipopolysaccharide or a combination of IFNγ and Staphylococcus aureus Cowan I in the presence of a test compound. The level of inhibition of IL-12 production can be measured by determining the amount of p70 by using a sandwich ELISA assay with anti-human IL-12 antibodies. IC50 of the test compound can then be determined. Specifically, PBMC or THP-1 cells are incubated with the test compound. Cell viability was assessed using the bioreduction of MTS [3-(4,5-dimethylthiazol-2-yl)-5-(3-carboxymethoxyphenyl)-2-(4-sulfophenyl)-2H-tetrazolium] (Promega, Madison, Wis.).
Staphylococcus aureus Cowan I (SAC) is obtained from Calbiochem (La Jolla, Calif.), and lipopolysaccharide (LPS, Serratia marscencens) is obtained from Sigma (St. Louis, Mo.). Human and mouse recombinant IFNγ are purchased from Boehringer Mannheim (Mannheim, Germany) and Pharmingen (San Diego, Calif.), respectively.
Human PBMC are isolated by centrifugation using Ficoll-Paque (Pharmacia Biotech, Uppsala, Sweden) and prepared in RPMI medium supplemented with 10% fetal calf serum (FCS), 100 U/mL penicillin, and 100 μg/mL streptomycin. PBMC are plated in wells of a 96-well plate at a concentration of 5×10^5 cells/well, and primed by adding IFNγ (30 U/mL) for 22 h and stimulated by adding LPS (1 μg/mL), or by adding IFNγ (100 U/mL) and then stimulated by adding SAC (0.01%). A test quinazoline compound is dissolved in DMSO, and added to wells of the 96-well plate. The final DMSO concentration is adjusted to 0.25% in all cultures, including the compound-free control. Human THP-1 cells are plated in wells, primed by adding IFNγ (100 U/mL) for 22 h and stimulated by adding SAC (0.025%) in the presence of different concentrations of the quinazoline compound. Cell-free supernatants are taken 18 h later for measurement of cytokines. Cell viability is assessed using the bioreduction of MTS. Cell survival is estimated by determining the ratio of the absorbance in compound-treated groups versus compound-free control.
The supernatant is assayed for the amount of IL-12p40, IL-12p70, or IL-10 by using a sandwich ELISA with anti-human antibodies, i.e., a Human IL-12 p40 ELISA kit from R&D Systems (Berkeley, Calif.), and a Human IL-12 p70 or IL-10 ELISA kit from Endogen (Cambridge, Mass.). Assays are based on the manufacturer's instructions.
The biological activities of quinazoline compounds are tested on human PBMC or THP-1 cells.
A general note: An ELISA detects its analyte on a solid surface through an enzyme-linked reagent.
Usually IC50 stands for the concentration that inhibits the measured activity by half. `COc1ccc(CCOc2nc(N3CCOCC3)c3cc(Oc4cccc(Cl)c4)ccc3n2)cc1OC` [Compound 35, 6-(3-Chloro-phenoxy)-2-[2-(3,4-dimethoxy-phenyl)-ethoxy]-4-morpholin-4-yl-quinazoline]: the IC50 is 9.9 µM.

With `COc1ccc(CCOc2nc(N3CCOCC3)c3cc(Oc4ccc(C)cc4)ccc3n2)cc1OC` [Compound 36, 2-[2-(3,4-Dimethoxy-phenyl)-ethoxy]-4-morpholin-4-yl-6-p-tolyloxy-quinazoline], the IC50 turned out to be 2.6 µM.

For the molecule `Cc1ccc(-c2ccc3nc(OCCN4CCOCC4)nc(N4CCOCC4)c3c2)cc1` [Compound 37, 4-Morpholin-4-yl-2-(2-morpholin-4-yl-ethoxy)-6-p-tolyl-quinazoline], the IC50 stood at 2.5 µM.

As to `Fc1ccc(-c2ccc3nc(OCCN4CCOCC4)nc(N4CCOCC4)c3c2)cc1` [Compound 38, 6-(4-Fluoro-phenyl)-4-morpholin-4-yl-2-(2-morpholin-4-yl-ethoxy)-quinazoline], the IC50 is greater than 10 µM.

For `COc1ccc(CCOc2nc(N3CCOCC3)c3cc(Nc4cccc(C)c4)ccc3n2)cc1OC` [Compound 39, {2-[2-(3,4-Dimethoxy-phenyl)-ethoxy]-4-morpholin-4-yl-quinazolin-6-yl}-m-tolyl-amine], the IC50 was greater than 10 µM.

Take `COc1ccc(CCOc2nc(N3CCOCC3)c3cc(Nc4ccc(C)cc4)ccc3n2)cc1OC` [Compound 40, {2-[2-(3,4-Dimethoxy-phenyl)-ethoxy]-4-morpholin-4-yl-quinazolin-6-yl}-p-tolyl-amine]: the IC50 was greater than 10 µM.

As for `COc1ccc(CCOc2nc(N3CCOCC3)c3cc(Nc4ccccc4C)ccc3n2)cc1OC` [Compound 41, {2-[2-(3,4-Dimethoxy-phenyl)-ethoxy]-4-morpholin-4-yl-quinazolin-6-yl}-o-tolyl-amine], the IC50 was greater than 10 µM.

Consider `Cc1cccc(-c2cnc3nc(OCCN4CCOCC4)nc(N4CCOCC4)c3c2)c1` [Compound 42, 4-Morpholin-4-yl-2-(2-morpholin-4-yl-ethoxy)-6-m-tolyl-pyrido[2,3-d]pyrimidine], for which the IC50 is greater than 10 µM.

Take `FC(F)(F)c1cccc(-c2cnc3nc(OCCN4CCOCC4)nc(N4CCOCC4)c3c2)c1` [Compound 43, 4-Morpholin-4-yl-2-(2-morpholin-4-yl-ethoxy)-6-(3-trifluoromethyl-phenyl)-pyrido[2,3-d]pyrimidine]: the IC50 is 1.4 µM.

`Cc1ccc(-c2cnc3nc(OCCN4CCOCC4)nc(N4CCOCC4)c3c2)cc1C` [Compound 44, 6-(3,4-Dimethyl-phenyl)-4-morpholin-4-yl-2-(2-morpholin-4-yl-ethoxy)-pyrido[2,3-d]pyrimidine]: the IC50 is greater than 10 µM.

Regarding `c1ccc2oc(-c3cnc4nc(OCCN5CCOCC5)nc(N5CCOCC5)c4c3)cc2c1` [Compound 45, 6-Benzofuran-2-yl-4-morpholin-4-yl-2-(2-morpholin-4-yl-ethoxy)-pyrido[2,3-d]pyrimidine], the IC50 is 0.77 µM.

In the case of `Cc1ccccc1Oc1cnc2nc(OCCN3CCOCC3)nc(N3CCOCC3)c2c1` [Compound 46, 4-Morpholin-4-yl-2-(2-morpholin-4-yl-ethoxy)-6-o-tolyloxy-pyrido[2,3-d]pyrimidine], the IC50 is greater than 1 µM.

Regarding `Cc1ccc(Oc2cnc3nc(OCCN4CCOCC4)nc(N4CCOCC4)c3c2)cc1` [Compound 47, 4-Morpholin-4-yl-2-(2-morpholin-4-yl-ethoxy)-6-p-tolyloxy-pyrido[2,3-d]pyrimidine], the IC50 is greater than 1 µM.

On to `c1ccc(Oc2cnc3nc(OCCN4CCOCC4)nc(N4CCOCC4)c3c2)cc1` [Compound 48, 4-Morpholin-4-yl-2-(2-morpholin-4-yl-ethoxy)-6-phenoxy-pyrido[2,3-d]pyrimidine], for which the IC50 was greater than 1 µM.

The same test, now with this note: Homo sapiens; in an assay according to Example 12.
`Cc1cccc(-c2cc(O)c3cc(OCCN4CCOCC4)cc(N4CCOCC4)c3n2)c1` [Compound 49, 8-Morpholin-4-yl-6-(2-morpholin-4-yl-ethoxy)-2-m-tolyl-quinolin-4-ol]: the IC50 came to 5.4 µM.
